Measured values from patent publication US20220281848A1, “PYRAZOLE-SUBSTITUTED PYRROLIDINONES AS HERBICIDES” (FMC Corporation, priority 2019, published 2022).

How the values were obtained:
Format in all cases: in vivo
corn (Zea mays, ZEAMX) = assay: Test A pre-emergence, corn; details: after 13 d
Method in brief: (§1)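 Damage rated 0–100 (100 = total) 13 d after spraying. Application was one day post-sowing at 15.625, 62.5 or 250 g/ha, formulated in 50:50 acetone/water plus 0.5% Tween 20. Pots held in glasshouse at 24/16 °C day/night, 14 h light, 65% humidity, watered twice daily.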

[1] = system: giant foxtail (Setaria faberi, SETFA); assay: Test A pre-emergence, giant foxtail; details: after 13 d
Method in brief: as §1

[2] = system: redroot pigweed (Amaranthus retroflexus, AMARE); assay: Test A pre-emergence, redroot pigweed; details: after 13 d
Method in brief: as §1

[3] = system: giant foxtail (Setaria faberi, SETFA); assay: Test A post-emergence, giant foxtail; details: after 13 d
Method in brief: (§2)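 Visual damage rating (0 no damage to 100 total damage) was made 13 d after spraying. The spray was 15.625, 62.5 or 250 g/ha in 50:50 acetone/water with 0.5% Tween 20, applied to 8-day-old glasshouse plants kept at 24/16° C, 14 h light and 65% humidity.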

[4] = system: barnyardgrass (Echinochloa crus-galli, ECHCG); assay: Test A post-emergence, barnyardgrass; details: after 13 d
Method in brief: as §2

[5] = system: ivy-leaved morning glory (Ipomoea hederacea, IPOHE); assay: Test A post-emergence, ivy-leaved morning glory; details: after 13 d
Method in brief: as §2

[6] = system: redroot pigweed (Amaranthus retroflexus, AMARE); assay: Test A post-emergence, redroot pigweed; details: after 13 d
Method in brief: as §2

[7] = system: velvetleaf (Abutilon theophrasti, ABUTH); assay: Test A post-emergence, velvetleaf; details: after 13 d
Method in brief: as §2

maize = assay: Test D pre-emergence, maize seed treated with a herbicide safener; details: ZEAMX, preemergent, 20 DAA
Description: (§3) A formulation containing 50 g/L of the test chemical was prepared by dissolving the active ingredient in a mixture of organic solvents and emulsifier, details of which are provided in the table. This formulation was then mixed with a small, variable amount of acetone to aid dissolution, before addition of a 0.2% v/v aqueous solution of an adjuvant, as the aqueous diluent, to form an aqueous spray solution which contains a predetermined concentration of the active ingredient.
(§4) This aqueous spray solution was then sprayed onto plants including maize and wheat that had been seed treated with a herbicide safener, after one day's cultivation (for pre-emergence) or after about 12 days' cultivation (for post-emergence). The plants were grown from seeds sown in standard soil, placed in a glasshouse under controlled conditions (at 24/18° C. or 20/16° C., day/night; 16 h light; 65% humidity). After spray application the plants were then grown in a glasshouse under the same conditions and watered twice daily. After 15 d for post-emergence and 20 DAA for pre-emergence the test was evaluated (100=total damage to plant; 0=no damage to plant).

wheat = assay: Test D pre-emergence, wheat seed treated with a herbicide safener; details: 100=total damage, 0=no damage
Description: as §3, §4

Structure (SMILES) | damage to plant (100=total damage; 0=no damage) ZEAMX (corn (Zea mays, ZEAMX); Pre-Emergence at 15.625 g/ha) | damage to plant (100=total damage; 0=no damage) ZEAMX (corn (Zea mays, ZEAMX); Pre-Emergence at 62.5 g/ha) | damage to plant (100=total damage; 0=no damage) ZEAMX (corn (Zea mays, ZEAMX); Pre-Emergence at 250 g/ha) | damage to plant (100=total damage; 0=no damage) SETFA ([1]; Pre-Emergence at 15.625 g/ha) | damage to plant (100=total damage; 0=no damage) SETFA ([1]; Pre-Emergence at 62.5 g/ha) | damage to plant (100=total damage; 0=no damage) SETFA ([1]; Pre-Emergence at 250 g/ha) | damage to plant (100=total damage; 0=no damage) AMARE ([2]; Pre-Emergence at 15.625 g/ha) | damage to plant (100=total damage; 0=no damage) AMARE ([2]; Pre-Emergence at 62.5 g/ha) | damage to plant (100=total damage; 0=no damage) AMARE ([2]; Pre-Emergence at 250 g/ha) | damage to plant (100=total damage; 0=no damage) SETFA ([3]; Post-Emergence at 15.625 g/ha) | damage to plant (100=total damage; 0=no damage) SETFA ([3]; Post-Emergence at 62.5 g/ha) | damage to plant (100=total damage; 0=no damage) SETFA ([3]; Post-Emergence at 250 g/ha) | damage to plant (100=total damage; 0=no damage) ECHCG ([4]; Post-Emergence at 15.625 g/ha) | damage to plant (100=total damage; 0=no damage) ECHCG ([4]; Post-Emergence at 62.5 g/ha) | damage to plant (100=total damage; 0=no damage) ECHCG ([4]; Post-Emergence at 250 g/ha) | damage to plant (100=total damage; 0=no damage) IPOHE ([5]; Post-Emergence at 15.625 g/ha) | damage to plant (100=total damage; 0=no damage) IPOHE ([5]; Post-Emergence at 62.5 g/ha) | damage to plant (100=total damage; 0=no damage) IPOHE ([5]; Post-Emergence at 250 g/ha) | damage to plant (100=total damage; 0=no damage) AMARE ([6]; Post-Emergence at 15.625 g/ha) | damage to plant (100=total damage; 0=no damage) AMARE ([6]; Post-Emergence at 62.5 g/ha) | further results
CCn1nc([C@H]2CN(C)C(=O)[C@@H]2C(=O)Nc2cccc(F)c2F)c2ccc(F)cc21 [Compound 4] | 0 | 40 | 80 | 80 | 90 | 90 | 0 | 20 | 40 | 90 | 90 | 90 | 80 | 90 | 90 | 0 | 0 | 20 | 0 | 20 | damage to plant (100=total damage; 0=no damage) AMARE ([6]; Post-Emergence at 250 g/ha): 20; damage to plant (100=total damage; 0=no damage) ABUTH ([7]; Post-Emergence at 15.625 g/ha): 0; damage to plant (100=total damage; 0=no damage) ABUTH ([7]; Post-Emergence at 62.5 g/ha): 0; damage to plant (100=total damage; 0=no damage) ABUTH ([7]; Post-Emergence at 250 g/ha): 20; damage to plant (100=total damage to plant; 0=no damage to plant), ZEAMX (maize; rate 15): 0; damage to plant (100=total damage to plant; 0=no damage to plant), ZEAMX (maize; rate 30): 0; damage to plant (100=total damage to plant; 0=no damage to plant), ZEAMX (maize; rate 60): 0; damage to plant (100=total damage to plant; 0=no damage to plant), ZEAMX (maize; rate 130): 0; damage to plant (100=total damage to plant; 0=no damage to plant), ZEAMX (maize; rate 250): 0; damage to plant (100=total damage to plant; 0=no damage to plant), ZEAMX (maize; rate 500): 10; damage to plant, TRZAW (wheat; rate 15, 20 DAA): 0; damage to plant, TRZAW (wheat; rate 30, 20 DAA): 0; damage to plant, TRZAW (wheat; rate 60, 20 DAA): 0; damage to plant, TRZAW (wheat; rate 130, 20 DAA): 0; damage to plant, TRZAW (wheat; rate 250, 20 DAA): 0; damage to plant, TRZAW (wheat; rate 500, 20 DAA): 0
CCn1nc([C@H]2CN(C)C(=O)[C@@H]2C(=O)Nc2cccc(F)c2F)c2c(F)cccc21 [Compound 7] | 20 | 30 | 90 | 70 | 80 | 90 | 0 | 0 | 0 | 60 | 70 | 80 | 60 | 80 | 80 | 20 | 20 | 0 | 0 | 0 | damage to plant (100=total damage; 0=no damage) AMARE ([6]; Post-Emergence at 250 g/ha): 0; damage to plant (100=total damage; 0=no damage) ABUTH ([7]; Post-Emergence at 15.625 g/ha): 0; damage to plant (100=total damage; 0=no damage) ABUTH ([7]; Post-Emergence at 62.5 g/ha): 0; damage to plant (100=total damage; 0=no damage) ABUTH ([7]; Post-Emergence at 250 g/ha): 0; damage to plant (100=total damage to plant; 0=no damage to plant), ZEAMX (maize; rate 15): 0; damage to plant (100=total damage to plant; 0=no damage to plant), ZEAMX (maize; rate 30): 0; damage to plant (100=total damage to plant; 0=no damage to plant), ZEAMX (maize; rate 60): 0; damage to plant (100=total damage to plant; 0=no damage to plant), ZEAMX (maize; rate 130): 0; damage to plant (100=total damage to plant; 0=no damage to plant), ZEAMX (maize; rate 250): 0; damage to plant (100=total damage to plant; 0=no damage to plant), ZEAMX (maize; rate 500): 10; damage to plant, TRZAW (wheat; rate 15, 20 DAA): 0; damage to plant, TRZAW (wheat; rate 30, 20 DAA): 0; damage to plant, TRZAW (wheat; rate 60, 20 DAA): 0; damage to plant, TRZAW (wheat; rate 130, 20 DAA): 0; damage to plant, TRZAW (wheat; rate 250, 20 DAA): 0; damage to plant, TRZAW (wheat; rate 500, 20 DAA): 0
CCn1nc([C@H]2CN(C)C(=O)[C@@H]2C(=O)Nc2cccc(F)c2F)c2cc(F)ccc21 [Compound 8] | 20 | 40 | 70 | 80 | 90 | 90 | 0 | 0 | 0 | 70 | 70 | 80 | 60 | 70 | 80 | 20 | 0 | 30 | 0 | 0 | damage to plant (100=total damage; 0=no damage) AMARE ([6]; Post-Emergence at 250 g/ha): 0; damage to plant (100=total damage; 0=no damage) ABUTH ([7]; Post-Emergence at 15.625 g/ha): 0; damage to plant (100=total damage; 0=no damage) ABUTH ([7]; Post-Emergence at 62.5 g/ha): 0; damage to plant (100=total damage; 0=no damage) ABUTH ([7]; Post-Emergence at 250 g/ha): 0; damage to plant (100=total damage to plant; 0=no damage to plant), ZEAMX (maize; rate 15): 0; damage to plant (100=total damage to plant; 0=no damage to plant), ZEAMX (maize; rate 30): 0; damage to plant (100=total damage to plant; 0=no damage to plant), ZEAMX (maize; rate 60): 0; damage to plant (100=total damage to plant; 0=no damage to plant), ZEAMX (maize; rate 130): 0; damage to plant (100=total damage to plant; 0=no damage to plant), ZEAMX (maize; rate 250): 0; damage to plant (100=total damage to plant; 0=no damage to plant), ZEAMX (maize; rate 500): 10; damage to plant, TRZAW (wheat; rate 15, 20 DAA): 0; damage to plant, TRZAW (wheat; rate 30, 20 DAA): 0; damage to plant, TRZAW (wheat; rate 60, 20 DAA): 0; damage to plant, TRZAW (wheat; rate 130, 20 DAA): 0; damage to plant, TRZAW (wheat; rate 250, 20 DAA): 0; damage to plant, TRZAW (wheat; rate 500, 20 DAA): 0
